Reference: US12049583B2, “Compound, composition for anisotropic dye films including the compound, anisotropic dye film, and optical element” (Mitsubishi Chemical Corporation, priority 2020, dated 2024)

Key:
[1] = Solubility of the dye in cyclopentanone (concentration of cyclopentanone-saturated solution by HPLC); type: physicochemical
Protocol: To 103 mg of cyclopentanone, 3 mg of the dye (IV-1) was added, and the resulting mixture was stirred at 80° C. for 5 minutes. The mixture was left to stand for 1 hour at room temperature. The resulting liquid mixture was filtered with a syringe equipped with a syringe filter (produced by Membrane Solutions Limited, PTFE13045, diameter: 0.45 μm). Hereby, a cyclopentanone-saturated solution of the dye (IV-1) was prepared. The above solution was diluted with 746 mg of tetrahydrofuran, and the concentration of the solution was determined using HPLC (L-2300 Series produced by Hitachi High-Technologies Corporation). A 0.1-mass % tetrahydrofuran solution of the dye (IV-1) was prepared, and a calibration curve was prepared at an absorption wavelength of 254 nm. The concentration of the cyclopentanone-saturated solution was measured using the above calibration curve.

[2] = Solubility of the dye in toluene (concentration of toluene-saturated solution by HPLC); type: physicochemical
Protocol: To 101 mg of toluene, 3 mg of the dye (II-1) was added, and the resulting mixture was stirred at 80° C. for 5 minutes. The mixture was left to stand for 1 hour at room temperature. The resulting liquid mixture was filtered with a syringe equipped with a syringe filter (produced by Membrane Solutions Limited, PTFE13045, diameter: 0.45 μm). Hereby, a toluene-saturated solution of the dye (II-1) was prepared. The above solution was diluted with 767 mg of tetrahydrofuran, and the concentration of the solution was determined using HPLC (L-2300 Series produced by Hitachi High-Technologies Corporation). A 0.1-mass % tetrahydrofuran solution of the dye (II-1) was prepared, and a calibration curve was prepared at an absorption wavelength of 254 nm. Table 1 lists the results of measurement of the concentration of the toluene-saturated solution using the above calibration curve.

[3] = cyclopentanone-saturated solution, stirred at 80° C. 5 min, left 1 hour at room temperature, filtered, HPLC 254 nm
[4] = toluene-saturated solution, stirred at 80° C. 5 min, left 1 hour at room temperature, filtered, HPLC 254 nm

Solubility of the dye in cyclopentanone [1, 3]	Solubility of the dye in toluene [2, 4]	SMILES	further results
2.2 mass %	–	CCCCSc1nnc(/N=N/c2ccc(/N=N/c3ccc(N(CC)CC)cc3)cc2)s1 [IV-2]	–
2.7 mass %	–	CCN(CC)c1ccc(/N=N/c2ccc(/N=N/c3sc(C)cc3C#N)cc2)cc1 [IV-3]	–
1.8 mass %	–	CCN(CC)c1ccc(/N=N/c2ccc(/N=N/c3cc(C)ns3)cc2)cc1 [IV-4]	–

More lines, now with the values behind:

SMILES	Solubility of the dye in cyclopentanone [1, 3]	Solubility of the dye in toluene [2, 4]	further results
CCN(CC)c1ccc(/N=N/c2ccc(/N=N/c3nc4sc(CCC(C)CC(C)(C)C)cc4s3)cc2)cc1 (centres unmarked) [II-1]	–	0.5 mass %	–
CCN(CC)c1ccc(/N=N/c2ccc(/N=N/c3nc4sc(CCC(C)C)cc4s3)cc2)cc1 [II-2]	–	0.7 mass %	Solubility of the dye in toluene ([2]; measured as for dye (II-1), detection absorption wavelength 254 nm): 0.7%
CCN(CC)c1ccc(/N=N/c2nc3sc(/N=N/c4ccc(OCCC(C)CC(C)(C)C)cc4)cc3s2)cc1 (centres unmarked) [II-3]	0.3 mass %	–	Solubility of the dye in cyclopentanone ([1]; measured as for dye (IV-1), detection absorption wavelength 254 nm): 0.3%
